Reference: patent US10265286B2, “Sequelae of cardiopulmonary bypass-induced pulmonary injury” (Vanderbilt University, priority 2016, dated 2019)
Where two headings read alike, the source gives them in different places.

What was measured:
[1] = test system: human vascular endothelial cells; assay: Nitric oxide production by cultured human vascular endothelial cells (FIG. 23); assay type: cell-based; conditions: cells stimulated with acetylcholine; nitrate/nitrites by Seiver's system
Procedure: These agents were administered to cultured human vascular endothelial cells stimulated with acetylcholine. Measurement of nitric oxide was through a Seiver's system of nitrate/nitrites.

[2] = Perioperative oral citrulline supplementation in children undergoing congenital cardiac surgery; assay type: in vivo, human
Procedure: Initial supplementation trials utilized oral citrulline at a dose of 1.9 g/kg before cardiopulmonary bypass, immediately postoperatively and every 12 hours, continuing for 48 hours after surgery.
40 patients with one of the 5 surgical diagnoses identified above were randomized to receive 5 doses of oral citrulline (1.9 grams/kg) vs. placebo. The first dose was administered immediately prior to surgery and the second dose immediately on arrival in the Pediatric ICU after surgery followed every 12 hours×3 doses.

[3] = Intravenous citrulline dose escalation pharmacokinetics in children undergoing congenital cardiac surgery; assay type: in vivo, human
Procedure: (§1) The initial goal was to test the safety and pharmacokinetics of three doses of intravenous citrulline in children undergoing surgical repair of specific congenital heart defects. […] An adverse drop in mean arterial pressure was defined as a greater than a twenty percent decrease from baseline. The baseline postoperative mean arterial blood pressure was calculated as the average of mean arterial blood pressure measurements collected every 5 minutes for the 30 minutes immediately preceding the administration of the postoperative dose or infusion.
The original doses selected were 200, 400, and 600 mg/kg based on data from previous animal studies. The original study design was a 4 arm study using the 3 doses and a placebo control.
After pharmacokinetic modeling, the study design was changed to a bolus dose of 150 mg/kg given in the OR on cardiopulmonary bypass followed 4 hours later by a continuous infusion of 9 mg/kg/hour for 48 hours. Another 9 patients were enrolled. The mean plasma levels of both citrulline and arginine in study patients (+IV citrulline) compared to patients in the observational cohort (−IV citrulline) are depicted in FIGS. 11A-B.
The dose of citrulline was given in the operating room immediately after cannulation and initiation of cardiopulmonary bypass. The overall goal was to achieve a sustained citrulline level of 100 μmol/L or more up to four hours after the initial dose. The four hour time point was selected to allow for the surgical procedure to be completed and the patient to return to the Intensive Care Unit (ICU) postoperatively before further dosing.

[4] = Intravenous citrulline dose escalation safety (adverse effects, hypotension); assay type: in vivo, human
Procedure: as §1

[5] = Revised dosing protocol study: duration of respiratory support and cardiovascular parameters (Example 8); assay type: in vivo, human
From the text: The study in this example was undertaken to test a revised dosing protocol designed to achieve and maintain therapeutic citrulline levels in the face of ultrafiltration and crystalloid replacement. […] The study recruited 22 patients randomized in equal numbers of 11 patients each to placebo and citrulline arms.
Early in the course of the study, it was recognized that one of the two participating centers routinely extubated all patients in the operating room immediately following cessation of cardiopulmonary bypass. This precluded use of the duration of mechanical ventilation as an endpoint. Instead, a post-hoc analysis was applied using the duration of all forms of ventilatory support as a possible endpoint. […] In contrast, contingency table analysis, shown in FIG. 16, did achieve borderline significance. Overall, the results are considered to represent a strong trend.

[6] = Phase IB study: total respiratory support; assay type: in vivo, human; conditions: invasive and non-invasive
From the text: The analysis of total respiratory support includes any invasive and non-invasive respiratory support required during the study period. The mean total duration of respiratory support in the citrulline treatment group was less than half the duration in the placebo treatment group; the difference was statistically significant (Table 11).

[7] = Phase IB study: length of time on inotropes and inotrope score; assay type: in vivo, human
From the text: The inotrope dose should be monitored post operatively from the time of PCCU admission using the following scoring system:
• =total inotrope score See, e.g., Hoffman, et al. Circulation (2003) 107: 996-1002. A decrease in the inotrope score would be a positive postoperative outcome.
In FIG. 21, data are defined as the time between the start and end times of inotrope use. All missing or 0 total inotrope scores prior to the first measured score are set to 0 and are therefore not considered as being on inotropes. The total inotrope score is considered, which is calculated on the basis of Dopamine, Dobutamine, Milrinone, Epinephrine, Phenylephrine, and Norepinephrine. The length of time on inotropes of patients with no use of inotropes is set to 0 hours (not censored).
The length of time on IV inotropes was documented from the time of first use after surgery until completion of the study medication at 48 hours, i.e. the duration of inotrope use was maximally 48 hours in the current analysis. Patients still receiving inotropes at hour 48 after surgery were censored. The average duration of intravenous (IV) inotrope use was clearly lower in the citrulline group than in the placebo group (Table 12). However, statistical significance for the between-treatment difference was not reached.

[8] = Phase IB study: vasoactive medications; assay type: in vivo, human
Procedure: The total number of hours on vasoactive medications, including nitroglycerin, nitroprusside and vasopressin, was calculated from the end of surgery until the discontinuation of vasoactive medications or end of study medication (Hour 48), whichever occurred first. Table 14 compares the length of time on vasoactive medications for the citrulline and placebo treatment groups. The overall duration of concomitant vasoactive treatment was shorter in citrulline—than placebo-treated patients, but the difference was not statistically significant. Similar results are shown for the total vasoactive score. However, the patient receiving citrulline did, in fact, show a shorter total duration of vasoactive medication as shown in FIG. 30.

[9] = IV doses 200, 400, and 600 mg/kg
[10] = all i.v. inotropes postoperatively
[11] = end of surgery until discontinuation or Hour 48

NC(=O)NCCCC(N)C(=O)O (stereo not drawn) [Citrulline, 2-amino-5-(carbamoylamino)pentanoic acid]
production of nitric oxide [1]: increases the production of NO
Plasma citrulline levels ([2]; 5 doses of oral citrulline 1.9 grams/kg, placebo 26): 36 µmol/L
tolerability ([2]; oral 1.9 g/kg before CPB, postoperatively and every 12 hours for 48 hours): well tolerated with no evidence of significant adverse events
peak citrulline level ([3]; 50 mg/kg IV, Patients 6 and 8): approximately 220 μmol/L
peak citrulline level ([3]; 100 mg/kg IV, Patients 9 & 10): 375 µmol/L
four hour levels ([3]; 150 mg/kg IV bolus): 100 µmol/L
peak citrulline level ([3]; 150 mg/kg IV, Patient 13-16): 660 µmol/L
plasma levels achieved [3, 9]: very high
sustained citrulline level suggested by pharmacokinetic modeling ([3]; bolus 150 mg/kg then 4 hours later continuous infusion 9 mg/kg/hr): approximately 100 μmol/L
half-life ([3]; human, plasma, iv, IV bolus doses in children on CPB): ~1.42 h
concentration at 4 hour ([3]; human, plasma, 50 mg/kg IV, Patients 6 and 8, read-out: 4 hour trough level): 40 µM
concentration at 4 hour ([3]; human, plasma, 100 mg/kg IV, Patients 9 & 10, read-out: 4 hour trough): 50 µM
concentration at 4 hour ([3]; human, plasma, 150 mg/kg IV, Patient 13-16, read-out: 4 hour trough): 80 µM
adverse side effects ([4]; 50 mg/kg IV): No adverse side effects were noted
adverse side effects ([4]; 100 mg/kg IV): no adverse side effects were noted
adverse effects [4, 9]: no adverse effects were noted
adverse effects including hypotension ([4]; any of 50, 100, 150 mg/kg IV): no adverse effects including hypotension
adverse side effects ([4]; bolus 150 mg/kg plus continuous infusion 9 mg/kg/hr): No adverse side effects were noted
significant adverse events ([4]; bolus 150 mg/kg plus infusion 9 mg/kg/hour for 48 hours, 9 patients): one significant adverse event but it was not related to the use of IV citrulline
systolic and diastolic blood pressure versus placebo ([5]; FIG. 18A): No significant change in systolic and diastolic blood pressure
mean arterial pressure versus placebo ([5]; FIG. 18B): No significant change in the mean arterial pressure
patients with Duration of Respiratory Support ≤50 hours ([5]; contingency table, placebo 3): 7
patients with Duration of Respiratory Support >50 hours ([5]; contingency table, placebo 8): 2
inotrope scores versus placebo ([5]; particularly from 15 to 18 hours onward following ICU admission (FIG. 17)): markedly better inotrope scores
adverse effects upon hemodynamic parameters ([5]; revised dosing protocol): No adverse effects upon hemodynamic parameters were observed
Total duration of respiratory support, Diff (CI) placebo vs citrulline [6]: 50.7 (5.4, 96.0) hours
Total duration of respiratory support, Median [6]: 23.6 h
Total duration of respiratory support, Range [6]: 0.0 to 100.1 h
Total duration of respiratory support, Mean ± SD ([6]; N = 11): 31.2 ± 28.27 h
Total inotrope score, Diff (CI) placebo vs citrulline [7, 10]: 559.8 (−193.5, 1313.2)
Total inotrope score, Median [7, 10]: 650.0
Total inotrope score, Range [7, 10]: 0.0-2351.0
Total inotrope score, Mean ± SD ([7]; all i.v. inotropes postoperatively, N = 11): 602.7 ± 727.86
Length of time on i.v. inotropes, Diff (CI) placebo vs citrulline ([7]; maximally 48 hours): 12.7 (−2.6, 28.1) hours
Length of time on i.v. inotropes, Median ([7]; maximally 48 hours): 16.0 h
Length of time on i.v. inotropes, Range ([7]; maximally 48 hours): 0.0 to 47.0 h
Length of time on i.v. inotropes, Mean ± SD ([7]; maximally 48 hours, N = 11): 13.4 ± 14.78 h
Total vasoactive score, Mean ± SD ([8]; N = 11): 5.5 ± 10.62
Length of time on vasoactive medications, Diff (CI) placebo vs citrulline [8, 11]: 3.5 (−7.0, 14.1) hours
Length of time on vasoactive medications, Median [8, 11]: 1.0 h
Length of time on vasoactive medications, Range [8, 11]: 0.0 to 17.0 h
Length of time on vasoactive medications, Mean ± SD ([8]; end of surgery until discontinuation or Hour 48, N = 11): 6.3 ± 7.18 h
Total vasoactive score, Diff (CI) placebo vs citrulline ([8]; in vivo): 5.2 (−7.7, 18.0)
Total vasoactive score, Median ([8]; in vivo): 1.1
Total vasoactive score, Range ([8]; in vivo): 0.0-35.5
